This test can be described thus: Binding affinity for endothelin B receptor by measuring its ability to displace [125I]-ET-3 from porcine cerebellar tissue.
`CCCCN(CCCC)C(=O)CN1C[C@H](c2ccc3c(c2)OCO3)[C@@H](C(=O)O)[C@@H]1C(C)(C)CCCC` [(2R,3R,4S)-4-Benzo[1,3]dioxol-5-yl-1-dibutylcarbamoylmethyl-2-(1,1-dimethyl-pentyl)-pyrrolidine-3-carboxylic acid]: the IC50 – broadly, the concentration that gives 50% inhibition – was determined as 36 µM. The same measure for `CCCCN(CCCC)C(=O)CN1C[C@H](c2ccc3c(c2)OCO3)[C@@H](C(=O)O)[C@@H]1CC(C)(C)C=C(C)C` [(2S,3R,4S)-4-Benzo[1,3]dioxol-5-yl-1-dibutylcarbamoylmethyl-2-(2,2,4-trimethyl-pent-3-enyl)-pyrrolidine-3-carboxylic acid]: 64 µM. The result for `CCCCN(CCCC)C(=O)CN1C[C@H](c2ccc3c(c2)OCO3)[C@@H](C(=O)O)[C@@H]1CC(C)(C)CCC` [(2S,3R,4S)-4-Benzo[1,3]dioxol-5-yl-1-dibutylcarbamoylmethyl-2-(2,2-dimethyl-pentyl)-pyrrolidine-3-carboxylic acid] reads 62 µM; that for `CCCCN(CCCC)C(=O)CN1C[C@H](c2ccc3c(c2)OCO3)[C@@H](C(=O)O)[C@@H]1CCC1OCCCO1` [(2S,3R,4S)-4-Benzo[1,3]dioxol-5-yl-1-dibutylcarbamoylmethyl-2-(2-[1,3]dioxan-2-yl-ethyl)-pyrrolidine-3-carboxylic acid], 62 µM; that for `CCCCN(CCCC)C(=O)CN1C[C@H](c2ccc3c(c2)OCO3)[C@@H](C(=O)O)[C@@H]1CC(C)(C)C1OCCO1` [(2S,3R,4S)-4-Benzo[1,3]dioxol-5-yl-1-dibutylcarbamoylmethyl-2-(2-[1,3]dioxolan-2-yl-2-methyl-propyl)-pyrrolidine-3-carboxylic acid], greater than 100 µM. The result for `CCCCN(CCCC)C(=O)CN1C[C@H](c2ccc3c(c2)OCO3)[C@@H](C(=O)O)[C@@H]1CCC1OCCO1` [(2S,3R,4S)-4-Benzo[1,3]dioxol-5-yl-1-dibutylcarbamoylmethyl-2-(2-[1,3]dioxolan-2-yl-ethyl)-pyrrolidine-3-carboxylic acid] reads greater than 100 µM.

Turning to `CCCCN(CCCC)C(=O)CN1C[C@H](c2ccc3c(c2)OCO3)[C@@H](C(=O)O)[C@@H]1CCC1SCCS1` [(2S,3R,4S)-4-Benzo[1,3]dioxol-5-yl-1-dibutylcarbamoylmethyl-2-(2-[1,3]dithiolan-2-yl-ethyl)-pyrrolidine-3-carboxylic acid], the IC50 is 29.3 µM. In the case of `CCCCN(CCCC)C(=O)CN1C[C@H](c2ccc3c(c2)OCO3)[C@@H](C(=O)O)[C@@H]1CCc1ccco1` [(2S,3R,4S)-4-Benzo[1,3]dioxol-5-yl-1-dibutylcarbamoylmethyl-2-(2-furan-2-yl-ethyl)-pyrrolidine-3-carboxylic acid], the half-maximal inhibitory concentration (IC50) came out at 47 µM. This IC50 lies about 1.6-fold higher than the previous one.

Consider `CCCCN(CCCC)C(=O)CN1C[C@H](c2ccc3c(c2)OCO3)[C@@H](C(=O)O)[C@@H]1CCc1ccoc1` [(2S,3R,4S)-4-Benzo[1,3]dioxol-5-yl-1-dibutylcarbamoylmethyl-2-(2-furan-3-yl-ethyl)-pyrrolidine-3-carboxylic acid], for which the IC50 is 26 µM. The same measure for `CCCCN(CCCC)C(=O)CN1C[C@H](c2ccc3c(c2)OCO3)[C@@H](C(=O)O)[C@@H]1CC(C)CCC` (stereo partly drawn) [(2S,3R,4S)-4-Benzo[1,3]dioxol-5-yl-1-dibutylcarbamoylmethyl-2-(2-methyl-pentyl)-pyrrolidine-3-carboxylic acid]: 71 µM; for `CCCCN(CCCC)C(=O)CN1C[C@H](c2ccc3c(c2)OCO3)[C@@H](C(=O)O)[C@@H]1CCc1ncco1` [(2S,3R,4S)-4-Benzo[1,3]dioxol-5-yl-1-dibutylcarbamoylmethyl-2-(2-oxazol-2-yl-ethyl)-pyrrolidine-3-carboxylic acid]: greater than 100 µM. With `CCCCN(CCCC)C(=O)CN1C[C@H](c2ccc3c(c2)OCO3)[C@@H](C(=O)O)[C@@H]1CC(CCC)CCC` [(2S,3R,4S)-4-Benzo[1,3]dioxol-5-yl-1-dibutylcarbamoylmethyl-2-(2-propyl-pentyl)-pyrrolidine-3-carboxylic acid], the half-maximal inhibitory concentration (IC50) was 95 µM. As to `CCCCN(CCCC)C(=O)CN1C[C@H](c2ccc3c(c2)OCO3)[C@@H](C(=O)O)[C@@H]1CCn1cccn1` [(2S,3R,4S)-4-Benzo[1,3]dioxol-5-yl-1-dibutylcarbamoylmethyl-2-(2-pyrazol-1-yl-ethyl)-pyrrolidine-3-carboxylic acid], the IC50 came out at 28.6 µM. This IC50 lies about 3.3-fold lower than the previous one. The result for `CCCCN(CCCC)C(=O)CN1C[C@H](c2ccc3c(c2)OCO3)[C@@H](C(=O)O)[C@@H]1CCc1ccccn1` [(2S,3R,4S)-4-Benzo[1,3]dioxol-5-yl-1-dibutylcarbamoylmethyl-2-(2-pyridin-2-yl-ethyl)-pyrrolidine-3-carboxylic acid] reads 14.1 µM.

In turn, `CCCCN(CCCC)C(=O)CN1C[C@H](c2ccc3c(c2)OCO3)[C@@H](C(=O)O)[C@@H]1CCCC1OCCO1` [(2S,3R,4S)-4-Benzo[1,3]dioxol-5-yl-1-dibutylcarbamoylmethyl-2-(3-[1,3]dioxolan-2-yl-propyl)-pyrrolidine-3-carboxylic acid] had an IC50 of 50 µM. The result for `CCCCN(CCCC)C(=O)CN1C[C@H](c2ccc3c(c2)OCO3)[C@@H](C(=O)O)[C@@H]1CCC(CC)CC` [(2S,3R,4S)-4-Benzo[1,3]dioxol-5-yl-1-dibutylcarbamoylmethyl-2-(3-ethyl-pentyl)-pyrrolidine-3-carboxylic acid] reads 72 µM; that for `CCCCN(CCCC)C(=O)CN1C[C@H](c2ccc3c(c2)OCO3)[C@@H](C(=O)O)[C@@H]1CCC=C(C)C` [(2S,3R,4S)-4-Benzo[1,3]dioxol-5-yl-1-dibutylcarbamoylmethyl-2-(4-methyl-pent-3-enyl)-pyrrolidine-3-carboxylic acid], 33.2 µM. The compound `C=C(C)CCC[C@H]1[C@H](C(=O)O)[C@@H](c2ccc3c(c2)OCO3)CN1CC(=O)N(CCCC)CCCC` [(2S,3R,4S)-4-Benzo[1,3]dioxol-5-yl-1-dibutylcarbamoylmethyl-2-(4-methyl-pent-4-enyl)-pyrrolidine-3-carboxylic acid] registered an IC50 of 36 µM. For the compound `CCCCN(CCCC)C(=O)CN1C[C@H](c2ccc3c(c2)OCO3)[C@@H](C(=O)O)[C@@H]1CCCC(C)C` [(2S,3R,4S)-4-Benzo[1,3]dioxol-5-yl-1-dibutylcarbamoylmethyl-2-(4-methyl-pentyl)-pyrrolidine-3-carboxylic acid], the IC50 was 35.8 µM. The IC50 values of the last two compounds are within 1.5-fold of each other.

Consider `CCCCN(CCCC)C(=O)CN1C[C@H](c2ccc3c(c2)OCO3)[C@@H](C(=O)O)[C@@H]1CCCCC(F)(F)F` [(2S,3R,4S)-4-Benzo[1,3]dioxol-5-yl-1-dibutylcarbamoylmethyl-2-(5,5,5-trifluoro-pentyl)-pyrrolidine-3-carboxylic acid], for which the IC50 came out at 34 µM.

In the case of `C/C=C(\C)CC[C@H]1[C@H](C(=O)O)[C@@H](c2ccc3c(c2)OCO3)CN1CC(=O)N(CCCC)CCCC` [(2S,3R,4S)-4-Benzo[1,3]dioxol-5-yl-1-dibutylcarbamoylmethyl-2-((E)-3-methyl-pent-3-enyl)-pyrrolidine-3-carboxylic acid], the IC50 worked out at 48 µM. The result for `CCCCN(CCCC)C(=O)CN1C[C@H](c2ccc3c(c2)OCO3)[C@@H](C(=O)O)[C@@H]1CC/C=C(/C)CC` [(2S,3R,4S)-4-Benzo[1,3]dioxol-5-yl-1-dibutylcarbamoylmethyl-2-((Z)-4-methyl-hex-3-enyl)-pyrrolidine-3-carboxylic acid] reads 7 µM; that for `CCCCN(CCCC)C(=O)CN1C[C@H](c2ccc3c(c2)OCO3)[C@@H](C(=O)O)[C@@H]1CCc1cccn1C` [(2S,3R,4S)-4-Benzo[1,3]dioxol-5-yl-1-dibutylcarbamoylmethyl-2-[2-(1-methyl-1H-pyrrol-2-yl)-ethyl]-pyrrolidine-3-carboxylic acid], 43.6 µM.

`CCCCN(CCCC)C(=O)CN1C[C@H](c2ccc3c(c2)OCO3)[C@@H](C(=O)O)[C@@H]1CCN1C(=O)CCC1=O` [(2S,3R,4S)-4-Benzo[1,3]dioxol-5-yl-1-dibutylcarbamoylmethyl-2-[2-(2,5-dioxo-pyrrolidin-1-yl)-ethyl]-pyrrolidine-3-carboxylic acid] returned an IC50 greater than 100 µM. The same measure for `CCCCN(CCCC)C(=O)CN1C[C@H](c2ccc3c(c2)OCO3)[C@@H](C(=O)O)[C@@H]1CCn1ccccc1=O` [(2S,3R,4S)-4-Benzo[1,3]dioxol-5-yl-1-dibutylcarbamoylmethyl-2-[2-(2-oxo-2H-pyridin-1-yl)-ethyl]-pyrrolidine-3-carboxylic acid]: 41 µM. In turn, `CCCCN(CCCC)C(=O)CN1C[C@H](c2ccc3c(c2)OCO3)[C@@H](C(=O)O)[C@@H]1CCN1CCCCC1=O` [(2S,3R,4S)-4-Benzo[1,3]dioxol-5-yl-1-dibutylcarbamoylmethyl-2-[2-(2-oxo-piperidin-1-yl)-ethyl]-pyrrolidine-3-carboxylic acid] showed an IC50 of 85 µM. Against the preceding compound, the IC50 is about 2.1-fold higher. The result for `CCCCN(CCCC)C(=O)CN1C[C@H](c2ccc3c(c2)OCO3)[C@@H](C(=O)O)[C@@H]1CCN1CCCC1=O` [(2S,3R,4S)-4-Benzo[1,3]dioxol-5-yl-1-dibutylcarbamoylmethyl-2-[2-(2-oxo-pyrrolidin-1-yl)-ethyl]-pyrrolidine-3-carboxylic acid] reads 65.4 µM; that for `CCCCN(CCCC)C(=O)CN1C[C@H](c2ccc3c(c2)OCO3)[C@@H](C(=O)O)[C@@H]1CCC1OC(C)C(C)O1` (stereo partly drawn) [(2S,3R,4S)-4-Benzo[1,3]dioxol-5-yl-1-dibutylcarbamoylmethyl-2-[2-(4,5-dimethyl-[1,3]dioxolan-2-yl)-ethyl]-pyrrolidine-3-carboxylic acid], 48 µM. The result for `CCCCN(CCCC)C(=O)CN1C[C@H](c2ccc3c(c2)OCO3)[C@@H](C(=O)O)[C@@H]1CCc1nc(C)c(C)o1` [(2S,3R,4S)-4-Benzo[1,3]dioxol-5-yl-1-dibutylcarbamoylmethyl-2-[2-(4,5-dimethyl-oxazol-2-yl)-ethyl]-pyrrolidine-3-carboxylic acid] reads 29.7 µM. The same measure for `CCCCN(CCCC)C(=O)CN1C[C@H](c2ccc3c(c2)OCO3)[C@@H](C(=O)O)[C@@H]1CCC1CCCO1` (stereo partly drawn) [(2S,3R,4S)-4-Benzo[1,3]dioxol-5-yl-1-dibutylcarbamoylmethyl-2-[2-(tetrahydro-furan-2-yl)-ethyl]-pyrrolidine-3-carboxylic acid]: greater than 100 µM; for `CCCCN(CCCC)C(=O)CN1C[C@H](c2ccc3c(c2)OCO3)[C@@H](C(=O)O)[C@@H]1CCC1CCCCO1` (stereo partly drawn) [(2S,3R,4S)-4-Benzo[1,3]dioxol-5-yl-1-dibutylcarbamoylmethyl-2-[2-(tetrahydro-pyran-2-yl)-ethyl]-pyrrolidine-3-carboxylic acid]: 47.8 µM.
